This note sets out measurements from ChEMBL document CHEMBL3507680, “University of Dundee, Gates Library screen for HepG2 cell viability”.

A short description of this data set: Human HepG2 cell viability assay in 384 well format. In kind it is toxicity, cell-based. Details: dose 125 nL, time 70.5 hour; cytotoxicity at 70.5 h: concentration not given beside the values. To be noted: HepG2 cells, read-out: Inhibition.
In the case of `CC(O)c1cccc(-n2c(CCC(=O)O)nc3ccccc32)c1` (configuration not stated), the cytotoxicity at 70.5 h was -8.25%.
`O=C1OCCN1Cc1ncnn1Cc1c(F)cccc1Cl`: the cytotoxicity at 70.5 h was determined as 11.9%.
In the case of `CC(C)(C)OC(=O)N1CCC(NCc2cnn(C(C)(C)C)c2)CC1` it was -2.5%; in that of `CCc1cc(CNC(=O)N2CCN(c3nc(C)c(C)s3)CC2)on1`, -3.25%.
In the case of `Cc1ccc(C2COCCN2C(=O)c2ccc(F)c(F)c2)o1` (configuration not stated) it was -0.394%; in that of `O=C(N1CCC(Oc2ccncc2)C1)C1(c2ccccc2F)CC1` (configuration not stated), -16.9%.
With `CNC(=O)c1cc2c(nc1NCC(C)C)CCN(c1ncccn1)CC2`, the cytotoxicity at 70.5 h was found to be 4.12%.
In the case of `Cn1cc(C(=O)N2CCN(Cc3ccsc3)CC2)cn1` it was 14.2%; in that of `O=C(CC1CCCCC1)N1CCN(C(=O)NCc2ccccn2)CC1`, -9.56%; in that of `Cn1ccnc1CN1CCCC2(CCN(CC3CCCO3)CC2)C1` (configuration not stated), 4.14%.
As for `CCCN1C(=O)[C@@H]2[C@@H](CCN2C(=O)COC)N(Cc2cccs2)C1=O`, the cytotoxicity at 70.5 h was 11.5%.
For the compound `O=C(Nc1cnn(Cc2ccccc2)c1)N1CCN(CCO)CC1`, the cytotoxicity at 70.5 h is -4.22%.
In the case of `CC(=O)N(C)CC(=O)Nc1cccc(N2CCN(CC3CC3)CC2)c1` it was -7.37%.
In the case of `O=C([C@@H]1CCO[C@@H]2CCN(CCc3ccccc3)C[C@@H]21)N1CCCC1` it was 15.3%; in that of `O=C1CCc2cc(C(=O)NCc3ccc(Cl)s3)ccc2N1`, -3.83%.
Under `O=C1O[C@@H]2CN(Cc3cc4ccccc4o3)C[C@@H]2N1Cc1ccccn1` stands -4.9%; under `Cn1cc(Cl)cc1C(=O)N1CCCN(Cc2nccn2C)CC1`, -1.83%.
Consider `COCCN1CCN(C(=O)c2ccccc2C(C)=O)[C@H]2CS(=O)(=O)C[C@H]21`, for which the cytotoxicity at 70.5 h was -5.79%.
Under `Cc1ccc2oc(=O)n(CC(=O)N3CCC4(CC3)CN(C)C(=O)O4)c2c1` stands 13.2%.
Regarding `O=S(=O)(CCCN1CCCC1Cn1cccn1)c1ccccc1` (configuration not stated), the cytotoxicity at 70.5 h was -11.1%.
For the compound `CC(C)(NS(C)(=O)=O)c1nc(-c2ccc(F)cc2Cl)no1`, the cytotoxicity at 70.5 h was -6.02%.
In the case of `Cc1ncsc1C(=O)NC1CCN(CCC(=O)Nc2ccccc2)CC1` it was -1.32%; in that of `Fc1ccc([C@@H]2COC[C@H]2NCc2cccc(F)c2)cc1`, -3.65%.
`CCN(CC)Cc1cc(=O)n2c(n1)CN(C(=O)c1ccnnc1)CCC2`: the cytotoxicity at 70.5 h was -3.81%.
As for `COC(C)c1noc(CN(C)c2ncc(Br)cn2)n1` (configuration not stated), the cytotoxicity at 70.5 h was -3.46%.
Under `COCC(NC(=O)c1cn(-c2cccc(Cl)c2F)nn1)C1CC1` (configuration not stated) stands -0.579%.
Regarding `CN(C)c1cncc(C2CCN(CC(N)=O)CC2)n1`, the cytotoxicity at 70.5 h was -0.457%.
On to `CCS(=O)(=O)N1CCCN(CCCOC)CC1`, for which the cytotoxicity at 70.5 h was -6.15%.
In the case of `Cc1c[nH]c(C2CCCN(C(=O)CCc3c(C)n[nH]c3C)C2)n1` (configuration not stated) it was -2.32%.
For the compound `CN1C(=O)C(C)(C)COc2ccc(NS(=O)(=O)Cc3ccccc3)cc21`, the cytotoxicity at 70.5 h was determined as 5.22%.
Under `CC(C)N1CCc2ncn(C(C)C)c2C1C(=O)N1CCN(C)CC1` (configuration not stated) stands 6.34%; under `COc1ncccc1CNC(=O)C1=NN(c2ccccc2)C(=O)CN1`, 0.82%; under `CN(C)c1ncccc1CNC(=O)NCc1ccc(Cl)s1`, -10.4%.
Under `O=C(CCc1ncc(-c2ccc(F)cc2)o1)NCCN1CCOCC1` stands -3.91%.
Under `CCS(=O)(=O)c1ncc(CN(C)Cc2ccc(C)o2)n1CCOC` stands 17.1%.
For the compound `COC1CCN(C(=O)Cn2ccc3ccccc32)CC1`, the cytotoxicity at 70.5 h was -3.16%.
Under `Nc1cc2c(nn1)CCN(C(=O)Cc1ccc3c(c1)CCCC3)C2` stands -2.05%.
Under `CN1CCO[C@@H]2CN(S(=O)(=O)c3ccccc3)C[C@@H]2C1` stands 20.2%; under `Cc1nc(CN(C)C2CCN(Cc3ccno3)C2)no1` (configuration not stated), 29.4%; under `c1cnc(-c2nc(CN3CCCC(Cn4cncn4)C3)cs2)nc1` (configuration not stated), -11%.
In the case of `Cc1cncc(C2CCN(Cc3ccsc3)CC2)n1`, the cytotoxicity at 70.5 h is 4.8%.
As for `Cc1cc(N2CCC(O)(CN(C)C(=O)CCCN)C2)c2cnccc2n1` (configuration not stated), the cytotoxicity at 70.5 h is -0.861%.
Turning to `Cc1cc(CNC(=O)Cc2cccs2)ccc1S(C)(=O)=O`, the cytotoxicity at 70.5 h came to 4.24%.
Regarding `COc1cc(Oc2ccc(C#N)cn2)ccc1CN1CCCC1`, the cytotoxicity at 70.5 h is -5.77%.
With `COCCN1CCCC(c2ccnc3c(C(N)=O)cnn23)C1` (configuration not stated), the cytotoxicity at 70.5 h came to 3.17%.
In the case of `CCC1CN(C(=O)c2cnc(-c3ccccc3)s2)CCO1` (configuration not stated) it was -1.27%; in that of `CC(C)NC(=O)[C@@H]1CCO[C@@H]2CCN(c3ncccn3)C[C@H]21`, 0.612%.
As to `Cc1nc(C)c(C(C)NCc2c(C)nn(C)c2N(C)C)s1` (configuration not stated), the cytotoxicity at 70.5 h is -6.29%.
For `Cc1c(S(=O)(=O)N2CCOCC2)cc2c(C)cc(=O)n3c2c1CCC3`, the cytotoxicity at 70.5 h came out at 0.511%.
Under `Cc1c(Cl)cccc1N1CC(c2nnc(N)s2)CC1=O` (configuration not stated) stands 5.68%; under `Cc1nc(C2CCCN2Cc2nc(C)c(C)o2)no1` (configuration not stated), -2.71%; under `CCCn1cnnc1CN(C)C(=O)C1CCC(=O)N(C2CCCC2)C1` (configuration not stated), -3.21%.
Under `CS(=O)(=O)c1ccc(NCC2CCCO2)c(S(C)(=O)=O)c1` (configuration not stated) stands -9.12%; under `COc1cccc(COCC(=O)N2CCCC(c3ccn[nH]3)C2)c1` (configuration not stated), 20.5%; under `CC(C)c1nc2n(n1)CC(NCc1ncc(C(C)(C)C)o1)CC2` (configuration not stated), 0.95%.
`Cn1ccnc1C1(O)CCN(C(=O)CCc2ccccc2)CC1`: the cytotoxicity at 70.5 h is -5.37%.
For `O=C(Cn1cccn1)Nc1ccc(N2CCCCC2)cc1`, the cytotoxicity at 70.5 h was found to be 31.5%.
On to `CC(O)CN1CCN(C(=O)c2cc3ccccc3c(=O)[nH]2)CC1` (configuration not stated), for which the cytotoxicity at 70.5 h is -1.26%.
Regarding `N#Cc1cccnc1NCCNC(=O)N1CCCC(C(F)(F)F)C1` (configuration not stated), the cytotoxicity at 70.5 h is -11.9%.
Under `CNC(=O)COc1ccccc1CNC1CCc2nc(C)nn2C1` (configuration not stated) stands -6.32%; under `CCN(Cc1ccc(O)c(C(=O)O)c1)CC1CCOCC1`, -0.0411%; under `Cc1ccsc1[C@@H]1CCN(C(=O)CCc2nc3ccccc3[nH]2)C[C@H]1O`, 5.42%.
Turning to `O=C(NCC1CCOC1)c1cc(-c2cccc(Cl)c2)[nH]n1` (configuration not stated), the cytotoxicity at 70.5 h was -17%.
In the case of `CCN(CC)C(=O)c1cc(Br)cc(S(=O)(=O)N2CCOCC2)c1F`, the cytotoxicity at 70.5 h was -2.06%.
In the case of `Cn1cccc1C(=O)N1C[C@@H]2C[C@@H](c3nnc(C4CC4)o3)O[C@@H]2C1` it was -3.51%; in that of `COc1cccc(CNC(=O)c2cc(C)nc(N3CCCCC3)n2)c1`, -9.69%.
In the case of `Cc1csc(Nc2nccnc2C2CCCN2CC(N)=O)n1` (configuration not stated) it was 11%; in that of `CN(Cc1nccs1)c1nccc(N2CCN[C@H]3CS(=O)(=O)C[C@H]32)n1`, 2.95%; in that of `NC(=O)CN(Cc1ccc(Br)cc1)C(=O)c1ccncc1`, -2.62%.
Turning to `CCc1nccn1CCCn1ccnc1-c1[nH]cnc1C`, the cytotoxicity at 70.5 h was found to be 5.17%.
In the case of `COc1cccc(COCC(O)CN(C)c2ccc(C)cc2C)c1` (configuration not stated) it was -0.324%; in that of `Cc1c(C(=O)NCC(F)(F)F)nnn1-c1ccccc1Cl`, -3.49%.
In the case of `COc1ccc(S(=O)(=O)NCCC(O)c2cccs2)c(C)c1` (configuration not stated) it was -8.98%.
As to `Cc1nnc(C(C)NCC2(c3ccc(Cl)cc3)CCCC2)o1` (configuration not stated), the cytotoxicity at 70.5 h is -7.22%.
In the case of `CCc1cc(CNC(=O)c2cc(NC(=O)C(C)C)ccc2Cl)[nH]n1` it was -9.06%; in that of `Oc1nc(-c2cnccn2)nc2c1CCN(Cc1ccccn1)C2`, -5.26%; in that of `CN(CCc1ccccc1)c1cnn(Cc2ccccn2)c(=O)c1`, -4.29%.
In the case of `[O-][S+](CCN1CCc2[nH]nc(C(F)(F)F)c2C1)c1ccccc1` (configuration not stated) it was -6.21%.
For `CN(Cc1noc2c1CCCC2)C(=O)Cn1cnc2ccccc2c1=O`, the cytotoxicity at 70.5 h is -9.78%.
In the case of `COC(=O)CCC(=O)N1CCc2nc(C(=O)N3CCOCC3)sc2CC1` it was 1.24%.
In the case of `CCN(CC)S(=O)(=O)c1ccc(CNc2cc(C)nc(C)n2)cc1` it was -12.1%; in that of `O=C(NCC1(O)CCOCC1)c1ccn(-c2ccccc2F)n1`, -9.56%.
Consider `O=C1C[C@H]2[C@@H](CCN2Cc2ccccn2)N1CCN1CCOCC1`, for which the cytotoxicity at 70.5 h was 6.45%.
For `COc1cccc(S(=O)(=O)NC(=O)C2CC(c3ccccc3)=NO2)c1` (configuration not stated), the cytotoxicity at 70.5 h is -9.7%.
As for `O=C1NC[C@@]2(C(=O)O)CN(Cc3ccc(Oc4ccccc4)cc3)C[C@@H]12`, the cytotoxicity at 70.5 h is -1.43%.
Turning to `CCn1cc(NS(=O)(=O)c2ccc(F)cc2)c(C(=O)NCC(C)C)n1`, the cytotoxicity at 70.5 h was -1.23%.
In the case of `Cc1ccccc1C1CCN(C(=O)CCNC(=O)C(C)(C)C)C1` (configuration not stated), the cytotoxicity at 70.5 h was -1.33%.
Under `COc1c(CNCc2cccc(Cn3ccnc3C)c2)c(C)nn1C` stands 13.2%.
In the case of `CCOCC1CN(C(=O)Cc2ccccn2)Cc2cnn(C)c21` (configuration not stated) it was -3.1%.
Consider `CN(Cc1ccccc1)C(=O)c1nc(S(C)(=O)=O)n2ccccc12`, for which the cytotoxicity at 70.5 h amounted to 31.2%.
Under `Cc1ccccc1N1CCN(C(=O)c2cnc(C3CC3)nc2)C(C)C1` (configuration not stated) stands -2.79%; under `CC(C)C[C@H](N)C(=O)N1CC2(CCNCC2)c2cc(Cl)ccc21`, 3.38%; under `CCc1nc(CN(C)Cc2nc(-c3ccccc3Cl)oc2C)no1`, -14.3%.
In the case of `CCC(NS(=O)(=O)N1CCOCC1)c1ccccc1OC` (configuration not stated) it was -2.95%; in that of `Cc1cnc(NCC(C)(C)N2CCN(C)CC2)nc1`, -0.355%; in that of `CC(Nc1cccc(CN2CCOC2=O)c1)C(=O)NC(N)=O` (configuration not stated), 32%.
`CC(C)c1nc(C2CCCN2CCOCC2CC2)no1` (configuration not stated): the cytotoxicity at 70.5 h was -15.5%.
